{"source": "patent US20110306071A1", "about": "“Compositions and Methods for Identifying Substrate Specificity of Inhibitors of Gamma Secretase” (ELAN PHARMACEUTICALS, INC., priority 2007, published 2011)", "molecules": {"B1": {"name": "C99GVP-SLSS: C99GVP in which the GSNK motif was substituted with SLSS from APLP2 (SEQ ID NO:51) (protein)", "chain": "DAEFRHDSGYEVHHQKLVFFAEDVSLSSGAIIGLMVGGVVIATVIVITLVMLKKKKLLSSIEQACDICRLKKLKCSKEKPKCAKCLKNNWECRYSPKTKRSPLTRAHLTEVESRLERLEQLFLLIFPREDLDMILKMDSLQDIKALLTGLFVQDNVNKDAVTDRLASVETDMPLTLRQHRISATSSSEESSNKGQRQLTVSGIPGDLAPPTDVSLGDELHLDGEDVAMAHADALDDFDLDMLGDGDSPGPGFTPHDSAPYGALDMADFEFEQMFTDALGIDEYGGQYTSIHHGVVEVDAAVTPEERHLSKMQQNGYENPTYKFFEQMQN"}}, "key": {"[1]": {"molecular_target": "T1, gamma secretase γ and ε cleavage of Fas-APPsw-DD (Homo sapiens, UniProt P49768)", "T1 construct": "active gamma secretase is endogenously and constitutively produced by the cell cultures; endogenous in cells; host or cells: HEK 293, transfected with Fas-APPsw-DD", "assay": "Concurrent Aβ and AICD ELISA in Fas-APPsw-DD transfected 293 cells (APP γ versus ε cleavage)", "type": "cell-based", "method": "Polyclonal antibody AICD ELISA. HEK 293 cells were grown under standard conditions to ˜90% confluence. Cells were harvested, counted, and subsequently plated onto PDL-coated 60 mm dishes at 2×10^6 cells/dish in 5 mL media. The cells were allowed to settle onto the dishes for ˜4 hours. Transfection of various construct into cells was performed using standard techniques using Lipofectamine 2000™ (LF2K) (Invitrogen). Briefly, 2 μg plasmid DNA and 4 μL LF2K were diluted into separate 150 μL aliquots of Opti-MEM (Gibco), and allowed to stand for 10-15 minutes. The two aliquots were then mixed, and the DNA:Lipid complex allowed to form for about 20 minutes. The 300 μL DNA:Lipid complex was then added to the cells in 3 mL fresh media, and incubated overnight. In order to administer potential or known gamma secretase inhibitor compounds to cells, the transfected cells were harvested, replated into PDL-coated 24-well plates at 200,000 cells/well, and allowed to settle onto the plates for ˜4 hours. Cells were washed, and 500 μL fresh media added. […]\nThe term ‘non-selective’ in this instance refers to lack of selectivity for cell Aβ over Notch signaling (or GammaAPP over GammaNotch). […] The calculated γ/ε selectivity of the non-selective compounds (FIG. 11 and Table I) were 0.7, 1.1, 1.8 and 1.9 for DAPT, 44989, 46719 and the Merck compound, respectively. […]"}, "[2]": {"molecular_target": "T2, gamma secretase cleavage of C99GVP (AICD-GVP) (Homo sapiens, UniProt P49768)", "T2 construct": "active gamma secretase is endogenously and constitutively produced by the cell cultures; endogenous in cells; host or cells: HEK 293, co-transfected with C99GVP, pG5E1B-luc and pCMV-β-gal", "assay": "Luciferase reporter gene assay, AICD-GVP transactivation from C99GVP in HEK293 cells", "type": "cell-based", "conditions": "C99-GVP, FIG. 5C", "method": "Luciferase Reporter Gene Assay: Luciferase reporter assays were carried out 48 hr post-transfection. Cells seeded on 96-well plates (BD Biosciences) were washed once with PBS and harvested in 20 μl of reporter lysis buffer (Promega) per well. After adding 100 μl of luminescent substrate (Promega), the luciferase activity was measured with a MicroLumatPlus microplate luminometer (Berthold Technologies). The β-galactosidase activity was measured similarly, using a luminescent β-galactosidase substrate (BD Biosciences). As a control for transfection efficiency and general effect on transcription, the luciferase activity was normalized by measuring β-galactosidase activity on a duplicate plate. All measurements were done in triplicate and repeated at least three times.\nLuciferase Assay. After confirming AICD-GVP generation in HEK cells, its ability to transactivate a luciferase reporter gene that contains Gal4 response elements in the upstream activation sequence (UAS) was tested. […] Some residual luciferase activity remained in the presence of excess gamma secretase inhibitors, even though identical treatment completely abolished AICD production as measured by Western blot (FIG. 5B). […]"}, "[3]": {"test_system": "gamma secretase (secreted Aβ40 and Aβ42)", "assay": "Aβ sandwich ELISA of media from C99GVP or APP transfected HEK cells treated with inhibitors", "type": "cell-based, Human", "method": "Inhibitor Treatment of Transfected HEK Cell: The transition state analogue gamma secretase inhibitor-L685,458 (Sigma) and the peptidomimetic inhibitor-DAPT (Dovey, H. F., et al., J Neurochem., 2001; 76:173-181) were dissolved in DMSO to make 20 mM stocks. Similarly, a number of Elan's series of sulfonamide inhibitors were prepared and used as described herein (see, also FIGS. 11-14). Inhibitors were added to cell cultures (e.g., HEK) at the indicated final concentration, and the treated cells were harvested 48 h post-transfection. The metallo-proteinase inhibitor TAPI-1 (Calbiochem) was used at a final concentration of 40 μM. The Aβ-degrading enzyme inhibitors, Bacitracin (Calbiochem) and phosphoramidon (Calbiochem) were used at final concentration of 1 mg/ml and 40 μM, respectively. All inhibitor experiments were performed in triplicate and repeated at least three times.\nELISAs used to quantify different Aβ species were performed using standard techniques as described above and in (Johnson-Wood, K., et al., Proc. Natl. Acad. Sci. U.S.A., 1997; 94: 1550-1555, incorporated by reference). The Aβ40 and Aβ42 peptides in the samples were captured onto 2G3 or 21F12 antibody coated plates, respectively, and detected with a biotinylated 2H3 antibody. The fluorescence signal generated from a streptavidin-alkaline phosphatase conjugate (Roche) was measured with a CytoFlour microplate reader (Applied Biosystems). Synthetic Aβ40 or Aβ42 peptides (Anaspec) were used to generate standard curves (FIG. 10). All measurements were done in triplicate.\nNext, Aβ generation was characterized from C99GVP. Wild type HEK cells and the mock-transfection control secreted little Aβ into the conditioned media (FIG. 5D, lane 1). In contrast, transient expression of C99GVP led to robust Aβ production, as measured by IP/Western blot (FIG. 5D) and ELISAs that detect Aβ 40 and Aβ42 species, respectively ([…], top panel). […] Finally, we compared the Aβ-lowering potency of two inhibitors, using either C99GVP or the wild type APP as substrate. As determined by ELISA, the respective IC50 values for the two substrates are essentially identical (FIG. 5E)."}, "[4]": {"test_system": "gamma secretase", "assay": "Aβ production from C99GVP and mutant or chimeric substrates in transfected HEK cells (ELISA, IP/Western blot)", "type": "cell-based, Human", "conditions": "for effect on secreted Aβ / Aβ production compared with C99GVP control: FIGS. 8C, 8D, 9B, 9C; for drop of Aβ40: Aβ40 ELISA, FIG. 9C; for reduction in total Aβ: IP/Western blot densitometry, FIG. 9B", "description": "Plasmid Construction of JMD Chimeric Substrates: A pcDNA3.1-C99 plasmid similar to the previously described SPA4CT-LE construct (Dyrks, et al., FEBS Lett., 1992; 309: 20-24) was generated by standard PCR techniques. The APP signal peptide was fused to the N-terminus of the C99 fragment via a dipeptide leucine-glutamic acid (LE) linker. The strategy used to generate the pcDNA3.1-C99GVP construct was similar to a previously described method (Karlstrom, H., et al., J. Biol. Chem., 2002; 277: 6763-6766). (See, generally, FIG. 3). Briefly, an AscI site was introduced immediately 3′ of the nucleotides encoding the triple-lysine (K) membrane anchor of C99, where the GVP coding sequence was subsequently inserted in frame (to the C-terminal side of the lysine membrane anchor sequence of C99). […] All three chimeras were constructed by using a two-stage PCR method with two pairs of overlapping primers (for list of primers, see Table I). These chimeric substrates were characterized to assess activity as gamma secretase substrates and subsequent production and secretion of Aβ and AICD (FIGS. 6-7). […] The C99GVP-SLSS quadruple JMD chimera was also constructed with the same PCR method. Point mutations within the luminal juxtamembrane domain (i.e., C99GVP-G25S, S26L, N27S and K28S; FIGS. 2 and 9A-D) were generated using QuikChange (Stratagene) site-directed mutagenesis kit according to the manufacturer's instructions. All cDNAs were verified by sequencing. The Aβ and Aβ-like peptides generated from C99GVP and the various chimeric substrates were numbered with reference to the first N-terminal residue (Asp-1) of the Aβ peptide.\nCell Culture and Transient Transfection: Human embryonic kidney 293 (HEK 293) cells (ATCC) were grown in Dulbecco's Modified Eagle Medium with High Glucose (DMEM, obtained from Gibco/Invitrogen, Cat #11960) supplemented with 10% fetal bovine serum (Hyclone, SV 30014.03) and 50 units/ml penicillin and streptomycin (37° C., 5% CO2). Cells were used at less than passage number 30. At the time of seeding, viability of cells was greater than 95% as determined using a Vi-Cell Analyzer (Beckman-Coulter). Confluence of cells on plates was kept at greater than 95% during all phases of the experiment as determined with a standard tissue culture inverted microscope. All transfections were carried out on 5×10^6 cells in 6-well tissue culture plates (Costar). The following 3 plasmids: pG5E1B-luc, 200 ng (gift from R. Maurer, OHSU); pCMV-β-gal, 100 ng (gift from R. Maurer, OHSU); C99GVP or the various chimeric constructs, 200-400 ng were added together to each well. FuGENE6 reagent (Roche Cat. #11-814443001) was used according to manufacturer's protocol for the transient transfection of adherent cells. Transfected cells were reseeded onto 12 well (2×10^6 cells) and/or 96-well (5×10^4 cells) plates (Costar) 16 h post-transfection; fresh media was added either with or without gamma secretase inhibitors. The cells and conditioned media were harvested 48 h post-transfection for analysis.\nImmunoprecipitation (IP) and Western Blot Detection of Aβ: Total Aβ peptides in conditioned medium or cell lysate were immuno-precipitated at 4° C. overnight with 4 μg of the 2H3 antibody, followed by incubation with 50 μl of a 50% protein G-Sepharose (GE Healthcare) slurry for 1 hr and three washes in the same lysis buffer as described above in the Western Blot discussion. Proteins were eluted from the solid-phase immunoprecipitates in Laemmli sample buffer by heating at 70° C. for 5 min and resolved on 10-20% Tris-Tricine SDS-PAGE or the modified Tris-Tricine/8M urea gels (Qi-Takahara, Y., et al., J Neurosci. (2005; 25, 436-445). After transferring onto nitrocellulose membranes (Invitrogen), the membranes were heated to 98° C. for 5 min in PBS, immunostained with the 2H3 antibody and visualized with Super-signal West Pico chemiluminescent substrate (Pierce). Each experiment was repeated at least three times. […]"}}, "data": [{"molecule": "CC(C)C[C@H](NC(=O)[C@H](Cc1ccccc1)C[C@@H](O)[C@H](Cc1ccccc1)NC(=O)OC(C)(C)C)C(=O)N[C@@H](Cc1ccccc1)C(N)=O", "note": "[L-685,458]", "values": [{"measurement": "γ/ε selectivity = IC50 AICD/IC50 Aβ", "setting": "[1]", "result": 1.9}, {"measurement": "luciferase reporter transactivation by AICD-GVP", "setting": "[2]", "result": "block luciferase reporter transactivation"}, {"measurement": "secreted Aβ (Aβ40 and Aβ42)", "setting": "[3]; 5 μM, 24 h, FIG. 5D", "result": "block secreted Aβ"}, {"measurement": "Aβ potency (IC50) with C99GVP versus native APP substrate", "setting": "[3]; FIG. 5E", "result": "equal Aβ potency"}]}, {"molecule": "C99GVP-APLP2*: APLP2 JMD swap chimera of C99GVP retaining the pre-TMD GSNK motif of APP (SEQ ID NO:19) (LEDAEFRHDSGLEEERESVGPLREDFGSNKGAIIGLMVGGVVIATVIVITLVML)", "values": [{"measurement": "effect on secreted Aβ / Aβ production compared with C99GVP control", "setting": "[4]", "result": "indistinguishable from the C99GVP control"}]}, {"molecule": "C99GVP-K28S: C99GVP point mutant K28S in the GSNK motif (SEQ ID NO:46) (LEDAEFRHDSGYEVHHQKLVFFAEDVGSNSGAIIGLMVGGVVIATVIVITLVML)", "values": [{"measurement": "drop of Aβ40", "setting": "[4]; versus C99GVP", "result": "~90", "unit": "%"}, {"measurement": "reduction in total Aβ", "setting": "[4]; versus C99GVP", "result": "~90", "unit": "%"}]}, {"molecule": "C99GVP-S26L: C99GVP point mutant S26L in the GSNK motif (SEQ ID NO:44) (LEDAEFRHDSGYEVHHQKLVFFAEDVGLNKGAIIGLMVGGVVIATVIVITLVML)", "values": [{"measurement": "drop of Aβ40", "setting": "[4]; versus C99GVP", "result": "52.7±2.3", "unit": "%"}, {"measurement": "reduction in total Aβ", "setting": "[4]; versus C99GVP", "result": "65.7±8.5", "unit": "%"}]}, {"molecule": "G25S: C99GVP point mutant G25S in the GSNK motif (SEQ ID NO:43) (LEDAEFRHDSGYEVHHQKLVFFAEDVSSNKGAIIGLMVGGVVIATVIVITLVML)", "values": [{"measurement": "effect on secreted Aβ / Aβ production compared with C99GVP control", "setting": "[4]", "result": "no obvious effect"}]}, {"molecule": "N27S: C99GVP point mutant N27S in the GSNK motif (SEQ ID NO:45) (LEDAEFRHDSGYEVHHQKLVFFAEDVGSSKGAIIGLMVGGVVIATVIVITLVML)", "values": [{"measurement": "effect on secreted Aβ / Aβ production compared with C99GVP control", "setting": "[4]", "result": "no obvious effect"}]}, {"molecule": "B1", "values": [{"measurement": "reduction in secreted Aβ", "setting": "[4]; versus C99GVP, FIGS. 9B and 9C", "result": "~97", "unit": "%"}]}]}
